According to ChEMBL document CHEMBL5532698, “2,3-Dihydroquinazolin-4(1H)-ones and quinazolin-4(3H)-ones as broad-spectrum cytotoxic agents and their impact on tubulin polymerisation” (RSC Med Chem, 2024):
The source made the active and inactive calls. The calls are words filed in the database; no cut-off is given here.

Columns and labels:
[1] = tested on: MIA PaCa-2; assay: Induction of G2/M phase cell cycle arrest in human MIA PaCa-2 cells at 0.1 uM incubated for 24 hrs by PI/RNase staining based analysis (reference value: 20 +/- 1%); format: functional
[2] = tested on: MIA PaCa-2; assay: Induction of G2/M phase cell cycle arrest in human MIA PaCa-2 cells assessed as sub G1 phase cells at 0.1 uM incubated for 24 hrs by PI/RNase staining based analysis (reference value: 4 +/- 2%); format: functional
[3] = tested on: A2780; assay: Antiproliferative activity against human A2780 cells assessed as cell growth inhibition incubated for 72 hrs by MTT assay; format: functional
[4] = tested on: HT-29; assay: Antiproliferative activity against human HT-29 cells assessed as cell growth inhibition at 25 uM incubated for 72 hrs by MTT assay relative to control; format: functional
[5] = Antiproliferative activity against human SJG2 cells assessed as cell growth inhibition incubated for 72 hrs by MTT assay; format: functional; conditions: SJ-G2
[6] = tested on: MCF7; assay: Antiproliferative activity against human MCF7 cells assessed as cell growth inhibition incubated for 72 hrs by MTT assay; format: functional
[7] = target: T1, Tubulin (Homo sapiens) (UniProt P68371+Q9H4B7+P0DPH7+P68366+Q13509+Q71U36+P04350+Q3ZCM7+P07437+P68363+Q9BQE3+Q6PEY2+Q13885+Q9BVA1+Q9BUF5); assay: Inhibition of tubulin (unknown origin) polymerization assessed as reduction microtubule formation at 10 uM measured after approximately 1 hrs by fluorometric analysis; format: protein-complex assay
[8] = tested on: DU-145; assay: Antiproliferative activity against human DU-145 cells assessed as cell growth inhibition incubated for 72 hrs by MTT assay; format: functional
[9] = tested on: DU-145; assay: Antiproliferative activity against human DU-145 cells assessed as cell growth inhibition at 25 uM incubated for 72 hrs by MTT assay relative to control; format: functional
[10] = tested on: U-87 MG; assay: Antiproliferative activity against human U87 cells assessed as cell growth inhibition incubated for 72 hrs by MTT assay; format: functional, U-87MG ATCC
[11] = tested on: MIA PaCa-2; assay: Induction of G2/M phase cell cycle arrest in human MIA PaCa-2 cells assessed as sub G1 phase cells at 0.5 uM incubated for 24 hrs by PI/RNase staining based analysis (reference value: 4 +/- 2%); format: functional
[12] = tested on: U-87 MG; assay: Antiproliferative activity against human U87 cells assessed as cell growth inhibition at 25 uM incubated for 72 hrs by MTT assay relative to control; format: functional, U-87MG ATCC
[13] = tested on: MIA PaCa-2; assay: Induction of G2/M phase cell cycle arrest in human MIA PaCa-2 cells assessed as S phase cells at 0.5 uM incubated for 24 hrs by PI/RNase staining based analysis (reference value: 11 +/- 1%); format: functional
[14] = Cytotoxicity against human MCF-10A cells assessed as cell growth inhibition at 25 uM incubated for 72 hrs by MTT assay relative to control; format: toxicity, cell-based
[15] = tested on: HT-29; assay: Antiproliferative activity against human HT-29 cells assessed as cell growth inhibition incubated for 72 hrs by MTT assay; format: functional
[16] = tested on: MIA PaCa-2; assay: Antiproliferative activity against human MIA PaCa-2 cells assessed as cell growth inhibition at 25 uM incubated for 72 hrs by MTT assay relative to control; format: functional
[17] = Antiproliferative activity against human SJG2 cells assessed as cell growth inhibition at 25 uM incubated for 72 hrs by MTT assay relative to control; format: functional; conditions: SJ-G2
[18] = tested on: MIA PaCa-2; assay: Induction of G2/M phase cell cycle arrest in human MIA PaCa-2 cells assessed as S phase cells at 0.1 uM incubated for 24 hrs by PI/RNase staining based analysis (reference value: 11 +/- 1%); format: functional
[19] = tested on: BE(2)-C; assay: Antiproliferative activity against human BE2C cells assessed as cell growth inhibition incubated for 72 hrs by MTT assay; format: functional
[20] = tested on: NCI-H460; assay: Antiproliferative activity against human NCI-H460 cells assessed as cell growth inhibition at 25 uM incubated for 72 hrs by MTT assay relative to control; format: functional
[21] = tested on: MCF7; assay: Antiproliferative activity against human MCF7 cells assessed as cell growth inhibition at 25 uM incubated for 72 hrs by MTT assay relative to control; format: functional
[22] = tested on: A-431; assay: Antiproliferative activity against human A-431 cells assessed as cell growth inhibition at 25 uM incubated for 72 hrs by MTT assay relative to control; format: functional
[23] = Cytotoxicity against human MCF-10A cells assessed as cell growth inhibition incubated for 72 hrs by MTT assay; format: toxicity, cell-based
[24] = tested on: MIA PaCa-2; assay: Induction of G2/M phase cell cycle arrest in human MIA PaCa-2 cells assessed as G1 phase cells at 0.5 uM incubated for 24 hrs by PI/RNase staining based analysis (reference value: 66 +/- 2%); format: functional
[25] = tested on: MIA PaCa-2; assay: Induction of G2/M phase cell cycle arrest in human MIA PaCa-2 cells at 0.5 uM incubated for 24 hrs by PI/RNase staining based analysis (reference value: 20 +/- 1%); format: functional
[26] = tested on: NCI-H460; assay: Antiproliferative activity against human NCI-H460 cells assessed as cell growth inhibition incubated for 72 hrs by MTT assay; format: functional
[27] = tested on: A2780; assay: Antiproliferative activity against human A2780 cells assessed as cell growth inhibition at 25 uM incubated for 72 hrs by MTT assay relative to control; format: functional
[28] = tested on: A-431; assay: Antiproliferative activity against human A-431 cells assessed as cell growth inhibition incubated for 72 hrs by MTT assay; format: functional
[29] = tested on: BE(2)-C; assay: Antiproliferative activity against human BE2C cells assessed as cell growth inhibition at 25 uM incubated for 72 hrs by MTT assay relative to control; format: functional
[30] = tested on: MIA PaCa-2; assay: Induction of G2/M phase cell cycle arrest in human MIA PaCa-2 cells assessed as G1 phase cells at 0.1 uM incubated for 24 hrs by PI/RNase staining based analysis (reference value: 66 +/- 2%); format: functional
[31] = tested on: MIA PaCa-2; assay: Antiproliferative activity against human MIA PaCa-2 cells assessed as cell growth inhibition incubated for 72 hrs by MTT assay; format: functional
[32] = tested on: MIA PaCa-2; assay: Induction of G2/M phase cell cycle arrest in human MIA PaCa-2 cells assessed as G1 phase cells at 1.0 uM incubated for 24 hrs by PI/RNase staining based analysis (reference value: 66 +/- 2%); format: functional
[33] = tested on: MIA PaCa-2; assay: Induction of G2/M phase cell cycle arrest in human MIA PaCa-2 cells at 1.0 uM incubated for 24 hrs by PI/RNase staining based analysis (reference value: 20 +/- 1%); format: functional
[34] = tested on: MIA PaCa-2; assay: Induction of G2/M phase cell cycle arrest in human MIA PaCa-2 cells at 5 uM incubated for 24 hrs by PI/RNase staining based analysis (reference value: 20 +/- 1%); format: functional
[35] = tested on: MIA PaCa-2; assay: Induction of G2/M phase cell cycle arrest in human MIA PaCa-2 cells assessed as G1 phase cells at 5 uM incubated for 24 hrs by PI/RNase staining based analysis (reference value: 66 +/- 2%); format: functional
[36] = tested on: MIA PaCa-2; assay: Induction of G2/M phase cell cycle arrest in human MIA PaCa-2 cells assessed as sub G1 phase cells at 1.0 uM incubated for 24 hrs by PI/RNase staining based analysis (reference value: 4 +/- 2%); format: functional
[37] = target: T1, Tubulin (Homo sapiens); assay: Inhibition of tubulin (unknown origin) polymerization assessed as reduction microtubule formation at 10 uM by fluorometric analysis; format: protein-complex assay
[38] = tested on: MIA PaCa-2; assay: Induction of G2/M phase cell cycle arrest in human MIA PaCa-2 cells assessed as sub G1 phase cells at 5 uM incubated for 24 hrs by PI/RNase staining based analysis (reference value: 4 +/- 2%); format: functional
[39] = tested on: MIA PaCa-2; assay: Induction of G2/M phase cell cycle arrest in human MIA PaCa-2 cells assessed as S phase cells at 1.0 uM incubated for 24 hrs by PI/RNase staining based analysis (reference value: 11 +/- 1%); format: functional
[40] = tested on: MIA PaCa-2; assay: Induction of G2/M phase cell cycle arrest in human MIA PaCa-2 cells assessed as S phase cells at 5 uM incubated for 24 hrs by PI/RNase staining based analysis (reference value: 11 +/- 1%); format: functional
[41] = tested on: HCT-116; assay: Antiproliferative activity against human HCT-116 cells assessed as reduction in cell viability incubated for 48 hrs by MTT assay; format: functional, cell-based; conditions: HCT-116, 48 h
[42] = tested on: A549; assay: Antiproliferative activity against human A549 cells assessed as reduction in cell viability incubated for 48 hrs by MTT assay; format: functional, cell-based; conditions: A549, 48 h
[43] = tested on: WRL68; assay: Antiproliferative activity against human WRL68 cells assessed as reduction in cell viability incubated for 48 hrs by MTT assay; format: functional, cell-based; conditions: WRL68, 48 h
[44] = tested on: HeLa; assay: Antiproliferative activity against human HeLa cells assessed as reduction in cell viability incubated for 48 hrs by MTT assay; format: functional, cell-based
[45] = tested on: HepG2; assay: Antiproliferative activity against human HepG2 cells assessed as reduction in cell viability incubated for 48 hrs by MTT assay; format: functional, cell-based; conditions: HepG2, 48 h

Row | Compound | Activity [1] | Activity [2] | GI50 [3] | inhibition at 25 µM [4] | GI50 [5] | GI50 [6] | GI50 [8] | inhibition at 25 µM [9] | GI50 [10] | Activity [11] | inhibition at 25 µM [12] | Activity [13] | inhibition at 72 h, 25 µM [14] | GI50 [15] | inhibition at 25 µM [16] | inhibition at 25 µM [17] | Activity [18] | GI50 [19] | inhibition at 25 µM [20] | inhibition at 25 µM [21] | further results
1 | O=C1NC(c2cccc3ccccc23)Nc2ccccc21 (stereo unspecified) | 22% | 4% | 31 nM | > 100% | 50 nM | 75 nM | 89 nM | > 100% | 220 nM | 17% | 93% | 11% | > 100% | 20 nM | 94% | > 100% | 11% | 27 nM | > 100% | > 100% | inhibition [7]: Active; inhibition at 25 µM [22]: > 100%; GI50 at 72 h [23]: 40 nM; Activity [24]: 17%; Activity [25]: 55%; GI50 [26]: 37 nM; inhibition at 25 µM [27]: > 100%; GI50 [28]: 20 nM; inhibition at 25 µM [29]: > 100%; Activity [30]: 63%; GI50 [31]: 48 nM
2 | COc1ccccc1/C=C/c1nc2ccccc2c(=O)[nH]1 |  |  | 330 nM | > 100% | 790 nM | 350 nM | 900 nM | > 100% | 1400 nM |  | > 100% |  | > 100% | 260 nM | > 100% | > 100% |  | 310 nM | > 100% | > 100% | Activity [32]: 56%; Activity [33]: 27%; Activity [34]: 78%; inhibition at 25 µM [22]: > 100%; GI50 at 72 h [23]: 560 nM; Activity [35]: 10%; Activity [36]: 5%; inhibition [37]: Active; GI50 [26]: 420 nM; inhibition at 25 µM [27]: > 100%; Activity [38]: 6%; GI50 [28]: 330 nM; inhibition at 25 µM [29]: > 100%; Activity [39]: 12%; GI50 [31]: 370 nM; Activity [40]: 6%
3 | COC(=O)Nc1nc2cc(C(=O)c3cccs3)ccc2[nH]1 [NOCODAZOLE] | 37% | 21% |  |  |  |  |  |  |  | 14% |  | 9% |  |  |  |  | 8% |  |  |  | IC50 [41]: 1810 nM; IC50 [42]: 5090 nM; IC50 [43]: 7560 nM; IC50 [44]: 2220 nM; Activity [24]: 16%; Activity [25]: 60%; inhibition [37]: Active; IC50 [45]: 5080 nM; Activity [30]: 34%
